Consider 7 compounds from patent US20260327264A1, “PEPTIDE INHIBITORS OF INTERLEUKIN-23 RECEPTOR” (Zealand Pharma A/S, priority 2023, published 2026).

Like-named read-outs stand apart in the source and are kept apart here. *1 amine or outer side, *2 acyl side, *3 side chain or, on linkers, in order; H or OH if unused. Where a SMILES comes first, the peptide text is derived from it. Bridges are numbered along the chain shown (N, C = ends). [ ]: non-standard residue; d: D form. 2Nal = N[C@@H](Cc1ccc2ccccc2c1)C(=O)O; AEF = NCCOc1ccc(C[C@H](N)C(=O)O)cc1; X1 = O=C(Cc1ccc(CN[*:1])cc1)[*:2]; 3Pal = N[C@@H](Cc1cccnc1)C(=O)O; αMeL = CC(C)C[C@](C)(N)C(=O)O; β3hL = CC(C)C[C@H](N)CC(=O)O; Dab = NCC[C@H](N)C(=O)O Some results are limits rather than exact numbers.

One data set concerns the target T1, human IL-23R (Homo sapiens, UniProt Q5VWK5).
T1 construct: Nanoluc luciferase (Nluc); secretion signal encoded by the plasmid (not specified); expressed in transfected cells; crude membranes used in the assay
T1 sequence (Q5VWK5 22-629): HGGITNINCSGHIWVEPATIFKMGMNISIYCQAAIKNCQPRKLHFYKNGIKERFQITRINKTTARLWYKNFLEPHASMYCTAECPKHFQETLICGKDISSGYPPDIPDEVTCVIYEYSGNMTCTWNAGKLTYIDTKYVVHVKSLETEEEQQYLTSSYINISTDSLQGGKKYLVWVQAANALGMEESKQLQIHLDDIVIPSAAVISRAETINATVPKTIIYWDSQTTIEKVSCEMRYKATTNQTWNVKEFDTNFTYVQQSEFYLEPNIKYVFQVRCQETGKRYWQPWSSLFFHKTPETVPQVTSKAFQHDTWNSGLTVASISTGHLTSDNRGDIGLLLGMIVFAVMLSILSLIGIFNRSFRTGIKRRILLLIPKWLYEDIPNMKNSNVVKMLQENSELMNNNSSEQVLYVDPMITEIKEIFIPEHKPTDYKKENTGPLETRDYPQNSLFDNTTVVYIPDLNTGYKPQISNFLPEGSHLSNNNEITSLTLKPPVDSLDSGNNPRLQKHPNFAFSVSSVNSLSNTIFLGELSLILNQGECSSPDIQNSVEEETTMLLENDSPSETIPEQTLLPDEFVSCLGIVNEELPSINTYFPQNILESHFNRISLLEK
The data set can be described thus: Binding assay: displacement of fluorophore (TAMRA)-labelled reference compound from human IL-23R (BRET, Nluc-IL23R fusion protein membranes). The conditions noted are these: for Emax: read-out: % displacement (hIL-23R binding).

The nature of data set [1]: Peptide stability in simulated intestinal fluid (SIF). The class given is in vitro ADME. The conditions noted are these: pig, 10 μM. As for the experimental part: SGF and SIF were prepared based on the United States Pharmacopeia specifications (Test Solutions, United States Pharmacopeia 35, NF 30, 2012). SGF was prepared by dissolving sodium chloride (0.2 g) in 50 mL of water. A volume of 0.7 mL of 10 M HCl was added to adjust the pH of the solution to 1.2 and the volume made up to 100 mL with water. 64 mg porcine pepsin (P7125, Sigma Aldrich) was gently dissolved into 20 mL preheated (37° C.) solution (3.2 g/L) immediately prior to the incubation. SIF was prepared by dissolving monobasic potassium phosphate (0.68 g) in 50 mL of water and adjusting the pH to 6.8 with 1 M NaOH. The volume was subsequently made up to 100 mL with water. 200 mg porcine pancreatin (P1625, Sigma Aldrich) was gently dissolved into 20 mL preheated (37° C.) solution (10 g/L) immediately prior to the incubation.
To initiate the incubations, 20 μL of peptide stock solution in 50% v/v isopropanol was deposited at the bottom of a well plate and 580 μL matrix solution was added to give a final substrate concentration of 10 μM. The incubation was performed at 37° C. with gentle shaking. 70 μL aliquots were removed at 0, 1 and 4 hours and quenched into 210 μL ice-cold precipitant solution (95% v/v acetonitrile with 0.1% v/v formic acid). After the last timepoint, the sampling plate was mixed for 10 min on a shaking table and centrifuged 10 min at 2200 g. 70 μL resulting supernatant was diluted with 150 μL water, mixed and centrifugated before analysis by liquid chromatography high resolution mass spectrometry. The zero sample was reinjected after the 4-hour sample to confirm that no drift in instrument sensitivity had occurred during the run. Percent remaining at each timepoint was calculated relative to timepoint zero based on absolute peak areas.
Compounds with a SIF stability (after 4 h) above 70% are considered highly SIF stable. Compounds with a SIF stability (after 4 h) between 30-70% (including 30% and 70%) are considered moderately SIF stable. Compounds with a SIF stability (after 4 h) below 30% are considered SIF unstable. SIF stability values above 100% are due to assay uncertainty and indicate the compound has not degraded.

Data set [2] is described as follows: Peptide stability in simulated gastric fluid (SGF). The class given is in vitro ADME. Conditions: pig, pH 1.2, pepsin, 37° C. The gist of the method: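 Peptide (10 μM final) incubated at 37 °C in USP SGF, pH 1.2 with porcine pepsin 3.2 g/L; aliquots at 0, 1 and 4 h quenched in acidified acetonitrile.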
Data set [3] relates to IL-23 mediated STAT3 signalling (DB cells). The data set can be described thus: Functional inhibition of IL-23 mediated STAT3 signalling (phospho-STAT3 Tyr705) in DB cells. Conditions: for hIL-23 (pSTAT3) antagonist % inhibition: Table 3-2, maximal inhibitory response, EC80 of hIL-23. The class given is cell-based, human. The gist of the method: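 DB cells preincubated 15 min with inhibitor at 37° C, 5% CO2, then stimulated 90 min with hIL-23 at EC80. Lysate phospho-STAT3 measured by MSD electrochemiluminescence. Signal normalized to IL-23-alone and buffer wells; IC50 and maximal inhibition from concentration–response curves.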

[4] abbreviates: simulated intestinal fluid, SIF, pH 6.8, pancreatin, 37° C.
Setting [5] is: simulated intestinal fluid, SIF, pH 6.8, pancreatin, 37° C., read-out: SIF (% remaining 4 h).
Setting [6] is: Table 3-2, EC80 of hIL-23, read-out: hIL-23 (pSTAT3) antagonist IC50.
[7] abbreviates: EC80 of hIL-23, read-out: IC50 (pSTAT3).

A word on the IC50: it is the midpoint of a concentration-inhibition curve. Consider `CC(C)C[C@@H]1NC(=O)[C@H](Cc2c[nH]c3ccccc23)NC(=O)[C@H](Cc2c[nH]c3ccccc23)NC(=O)[C@@H]2CSCC(=O)CSC[C@H](NC(=O)[C@H]([C@@H](C)O)NC(=O)[C@@H](NC(=O)CN)CSCC(=O)CSC[C@@H](C(=O)N[C@@H](CO)C(N)=O)NC1=O)C(=O)N[C@@H](Cc1c[nH]c3ccccc13)C(=O)N[C@@H](CCC(=O)O)C(=O)N2` (single isomer, unassigned) [I1 (isomer 3), H-GC(1a)TC(2a)WEC(2a)WWLC(1a)S-[NH2], reference compound], for which the Emax at human IL-23R is 105%. Also, the fraction remaining at 1 h, 10 µM is 0% in data set [1] (setting [4]) and 92% in data set [2]. The figures for the amount remaining at 4 h, 10 µM in data set [1] (setting [5]) and in data set [2] were 0% and 94%, respectively. The IC50 in data set [3] (setting [6]) was more than 1000 nM. Also, the “hIL-23 (pSTAT3) antagonist % inhibition” value in data set [3] is 83%.

Consider `CSCC[C@H](NC(=O)[C@@H]1CSCC(=O)CSC[C@H](NC(=O)[C@@H](N)CCC(=O)O)C(=O)N[C@@H](Cc2c[nH]c3ccccc23)C(=O)N[C@@H](CC(C)C)C(=O)N[C@H]2CSCC(=O)CSC[C@H](NC(=O)[C@H](CC(N)=O)NC(=O)[C@H](CCCNC(=N)N)NC(=O)[C@H](Cc3ccc(O)cc3)NC(=O)[C@H](Cc3ccc(O)cc3)NC2=O)C(=O)N[C@@H](CC(N)=O)C(=O)N1)C(N)=O` (single isomer, unassigned) [I4 (isomer 3), H-EC(4a)WLC(5a)YYRNC(5a)NC(4a)M-[NH2], reference compound], for which, on human IL-23R, the Emax was found to be 84%. The share remaining at 1 h, 10 µM is 0% in data set [1] (setting [4]) and 99% in data set [2]. Besides, the amount remaining at 4 h, 10 µM in data set [1] (setting [5]) was 0%; in data set [2], 99%. Besides, in data set [3] (setting [6]), the IC50 was more than 1000 nM. Also, in data set [3], the “hIL-23 (pSTAT3) antagonist % inhibition” value was 23%.

In the case of `CC(C)C[C@]1(C)NC(=O)[C@H](Cc2ccc3ccccc3c2)NC(=O)[C@H](Cc2ccc(OCCN)cc2)NC(=O)[C@@H]2CCNC(=O)CC[C@H](NC(=O)[C@H](CO)NC(=O)Cc3ccc(cc3)CNC(=O)CC[C@@H](C(=O)N[C@@H](CCN)C(=O)NCCCCc3cccnc3)NC1=O)C(=O)N[C@@H](Cc1c[nH]c3ccccc13)C(=O)N[C@@H](CCC(N)=O)C(=O)N2` [Compound 6, [4-Aminomethyl-phenylacetyl](1c)*SE(2c)WQ[Dab](2c)[Y(2-aminoethoxy)][2-Nal][2-Me-Leu]E(1c)[Dab]-[NH-(4-(pyridin-3-yl)butanyl)]], the IC50 at human IL-23R was 0.037 nM; in data set [3] (setting [7]), 3.2 nM; in data set [3] (setting [6]), 3.2 nM. Further, the Emax at human IL-23R came out at 103%. Moreover, the amount remaining at 1 h, 10 µM in data set [1] (setting [4]) is 97%; in data set [2], 110%. Besides, the fraction remaining at 4 h, 10 µM in data set [2] was 108%. Besides, the “hIL-23 (pSTAT3) antagonist % inhibition” value in data set [3] was determined as 99%.

Regarding `CC(C)C[C@@H](CC(N)=O)NC(=O)[C@H](Cc1cccnc1)NC(=O)[C@H](CCN)NC(=O)[C@@H]1CCC(=O)NCc2ccc(cc2)CC(=O)N[C@@H](CO)C(=O)N[C@H]2CCC(=O)NCC[C@H](NC(=O)[C@H](CCC(N)=O)NC(=O)[C@H](Cc3c[nH]c4ccccc34)NC2=O)C(=O)N[C@@H](Cc2ccc(OCCN)cc2)C(=O)N[C@@H](Cc2ccc3ccccc3c2)C(=O)N[C@@](C)(CC(C)C)C(=O)N1` [Compound 11, [4-Aminomethyl-phenylacetyl](1c)*SE(2c)WQ[Dab](2c)[Y(2-aminoethoxy)][2-Nal][2-Me-Leu]E(1c)[Dab][3-(3-Pyridyl)-Ala][beta-hLeu]-[NH2]] ([X1]SEWQ[Dab][AEF][2Nal][αMeL]E[Dab][3Pal][β3hL]-NH2; lactam 3-6, N-10), the IC50 at human IL-23R stood at 0.024 nM; in data set [3] (setting [7]), 0.68 nM; in data set [3] (setting [6]), 0.68 nM. Also, the Emax at human IL-23R is 103%. Also, the figures for the fraction remaining at 1 h, 10 µM in data set [1] (setting [4]) and in data set [2] were 101% and 98%, respectively. Also, the share remaining at 4 h, 10 µM was 102% in data set [1] (37 °C, simulated intestinal fluid pH 6.8 with porcine pancreatin, read-out: SIF (% after 4 h), intact peptide remaining) and 97% in data set [2]. In addition, the “hIL-23 (pSTAT3) antagonist % inhibition” value in data set [3] was found to be 98%.

Turning to `CC(C)C[C@]1(C)NC(=O)[C@H](Cc2ccc3ccccc3c2)NC(=O)[C@H](Cc2ccc(OCCN)cc2)NC(=O)[C@@H]2CCNC(=O)CC[C@H](NC(=O)[C@H](CO)NC(=O)Cc3ccc(cc3)CNC(=O)CC[C@@H](C(=O)N[C@@H](CCN)C(=O)N[C@H](Cc3c[nH]cn3)C(N)=O)NC1=O)C(=O)N[C@@H](Cc1c[nH]c3ccccc13)C(=O)N[C@@H](CCC(N)=O)C(=O)N2` [Compound 13, [4-Aminomethyl-phenylacetyl](1c)*SE(2c)WQ[Dab](2c)[Y(2-aminoethoxy)][2-Nal][2-Me-Leu]E(1c)[Dab][{d}H]-[NH2]], the Emax at human IL-23R was determined as 100%. The amount remaining at 1 h, 10 µM in data set [1] (setting [4]) was 84%; in data set [2], 94%. In addition, the IC50 in data set [3] (setting [7]) and in data set [3] (setting [6]) was 6.8 nM in each case. Moreover, the “hIL-23 (pSTAT3) antagonist % inhibition” value in data set [3] was 99%.

Consider `CC(C)C[C@]1(C)NC(=O)[C@H](Cc2ccc3ccccc3c2)NC(=O)[C@H](Cc2ccc(OCCN)cc2)NC(=O)[C@@H]2CCNC(=O)CC[C@H](NC(=O)[C@H](CO)NC(=O)Cc3ccc(cc3)CNC(=O)CC[C@@H](C(=O)N[C@@H](CCN)C(=O)N[C@@H](Cc3cn(C)cn3)C(N)=O)NC1=O)C(=O)N[C@@H](Cc1c[nH]c3ccccc13)C(=O)N[C@@H](CCC(N)=O)C(=O)N2` [Compound 14, [4-Aminomethyl-phenylacetyl](1c)*SE(2c)WQ[Dab](2c)[Y(2-aminoethoxy)][2-Nal][2-Me-Leu]E(1c)[Dab][H(Me)]-[NH2]], for which the IC50 at human IL-23R turned out to be 0.11 nM; in data set [3] (setting [6]) it was 7.2 nM. Further, on human IL-23R, the Emax was 102%. The amount remaining at 1 h, 10 µM in data set [1] (setting [4]) is 98%; in data set [2] it was 93%. Also, the “hIL-23 (pSTAT3) antagonist % inhibition” value in data set [3] is recorded as 99%.

On to `CNC(=O)[C@H](Cc1cccnc1)NC(=O)[C@H](CO)NC(=O)[C@@H]1CCC(=O)NCc2ccc(cc2)CC(=O)N[C@@H](C)C(=O)N[C@H]2CCC(=O)NCC[C@H](NC(=O)[C@H](CCC(N)=O)NC(=O)[C@H](Cc3c[nH]c4ccccc34)NC2=O)C(=O)N[C@@H](Cc2ccc(OCCN)cc2)C(=O)N[C@@H](Cc2ccc3ccccc3c2)C(=O)N[C@@](C)(CC(C)C)C(=O)N1` [Compound 40, [4-Aminomethyl-phenylacetyl](1c)*AE(2c)WQ[Dab](2c)[Y(2-aminoethoxy)][2-Nal][2-Me-Leu]E(1c)S[3-(3-Pyridyl)-Ala]-[NHMe]] ([X1]AEWQ[Dab][AEF][2Nal][αMeL]ES[3Pal]-NHMe; lactam 3-6, N-10), for which the Emax on human IL-23R came out at 100%. Also, the fraction remaining at 1 h, 10 µM in data set [1] (setting [4]) is 93%. Further, the fraction remaining at 4 h, 10 µM in data set [2] is 89%.
